Data reported in patent US8124775B2, “Chemical compound and its use” (Bayer Pharma Aktiengesellschaft, priority 2004, dated 2012).
Read-outs that look alike come from different tables or passages of the source.

Legend:
[1] = molecular target: T1, CETP (Homo sapiens, UniProt P11597); test: CETP fluorescence test with enriched CETP; format: biochemical; design: tissue Sigma P9523; host or cells: human plasma; conditions: section (b), Example 1 = formula (Ib); enriched CETP from human plasma, 37° C., 4 hours
T1 sequence (P11597 18-493): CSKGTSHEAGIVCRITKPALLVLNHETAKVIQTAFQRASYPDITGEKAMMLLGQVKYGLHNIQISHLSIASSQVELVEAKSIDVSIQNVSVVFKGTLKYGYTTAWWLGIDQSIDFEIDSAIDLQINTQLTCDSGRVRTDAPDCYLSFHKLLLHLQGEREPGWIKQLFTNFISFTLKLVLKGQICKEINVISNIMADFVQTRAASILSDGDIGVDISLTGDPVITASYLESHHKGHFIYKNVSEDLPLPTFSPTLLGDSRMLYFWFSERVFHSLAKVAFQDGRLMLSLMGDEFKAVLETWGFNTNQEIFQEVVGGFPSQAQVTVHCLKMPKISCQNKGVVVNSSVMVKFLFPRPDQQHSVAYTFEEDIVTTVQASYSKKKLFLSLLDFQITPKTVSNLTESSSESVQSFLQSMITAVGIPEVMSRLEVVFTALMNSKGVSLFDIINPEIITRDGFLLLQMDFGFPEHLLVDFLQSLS
Procedure: CETP is obtained in partially purified form from human plasma by differential centrifugation and column chromatography and used for the test. To this end, human plasma is adjusted to a density of 1.21 g per ml using NaBr and centrifuged at 4° C. at 50 000 rpm for 18 h. The bottom fraction (d>1.21 g/ml) is applied to a Sephadex® Phenyl-Sepharose 4B (Pharmacia) column, washed with 0.15 M NaCl/0.001 M tris-HCl pH 7.4 and then eluted with distilled water. The CETP-active fractions are pooled, dialysed against 50 mM sodium acetate pH 4.5 and applied to a CM-Sepharose® column (Pharmacia). The mixture is then eluted using a linear gradient (0-1 M NaCl). The pooled CETP fractions are dialysed against 10 mM tris/HCl pH 7.4 and then further purified by chromatography on a Mono Q® column (Pharmacia).
Measurement of the CETP-catalysed transfer of a fluorescent cholesterol ester between liposomes [modified according to the procedure of Bisgaier et al., J. Lipid Res. 34, 1625 (1993)]: […]
The change in the fluorescence at 485/535 nm is a measure of the CE transfer; the inhibition of the transfer in comparison to the control batch without substance is determined. […]

[2] = molecular target: T1, CETP; test: CETP fluorescence test with human plasma; format: biochemical; design: tissue Sigma P9523; host or cells: human plasma; conditions: section (b), Example 1 = formula (Ib), 37° C., 24 h
Procedure: For the production of the donor liposomes, 1 mg of cholesteryl 4,4-difluoro-5,7-dimethyl-4-bora-3a,4a-diaza-s-indacene-3-dodecanoate (cholesteryl BODIPY® FL C12, Molecular Probes) is dissolved in 600 μl of dioxane with 5.35 mg of triolein and 6.67 mg of phosphatidylcholine with gentle warming in an ultrasonic bath and this solution is added very slowly with ultrasonication to 63 ml of 50 mM tris/HCl, 150 mM NaCl, 2 mM EDTA buffer pH 7.3 at room temperature. The suspension is then ultrasonicated under an N2 atmosphere for 30 minutes in the Branson ultrasonic bath at about 50 watts, the temperature being kept at about 20° C.
6 μl (12% v/v) of donor liposomes and 1 μl (2% v/v) of a solution of the substance to be investigated in DMSO are added to 42 μl (86% v/v) of human plasma (Sigma P9523), and the mixture is incubated at 37° C. for 24 h.
The change in the fluorescence at 510/520 nm (gap width 2.5 nm) is a measure of the CE transfer; the inhibition of the transfer in comparison to the control batch without substance is determined. […]

[3] = molecular target: T1, CETP; test: Ex vivo activity on transgenic hCETP mice (serum CETP activity); format: in vivo; design: from tissue; host or cells: serum of transgenic hCETP mice (Dinchuk et al.); conditions: mouse, po
Procedure: 10 μl of buffer and 2 μl of serum are added to 80 μl of test mix, and the mixture is incubated at 37° C. for 4 h.
The change in the fluorescence at 485/535 nm is a measure for the CE transfer; the inhibition of the transfer is comparison to the control batch without substance is determined.
To test for CETP-inhibitory activity, the substances are administered orally using a stomach tube to transgenic hCETP mice bred in-house [Dinchuk et al. BBA 1295-301 (1995)]. To this end, male animals are randomly assigned to groups having an equal number of animals, as a rule n=4, one day before the start of the experiment. Before administration of the substance, blood is taken from each mouse by puncture of the retro-orbital venous plexus for the determination of its basal CETP activity in the serum (T1). The test substance is then administered to the animals using the stomach tube. At specific times after administration of the test substance, blood is taken from the animals by puncture a second time (T2), in general 16 or 24 h after substance administration, but if appropriate this can also be carried out at another time.
In order to be able to assess the inhibitory activity of a substance, for each time, i.e. 16 or 24 hours, a corresponding control group is employed whose animals only receive the formulating agent without substance. In the control animals, the second blood sampling per animal is carried out as in the substance-treated animals in order to be able to determine the change in the CETP activity without inhibitor over the corresponding experimental time interval (16 or 24 h).
After termination of the clotting, the blood samples are centrifuged and the serum is removed by pipette. For the determination of the CETP activity, the cholesteryl ester transport over 4 h is determined. To this end, in general 2 μl of serum are employed in the test batch and the test is carried out as described under B-I.2.3.
The differences in the cholesteryl ester transport [pM CE/h (T2)−pM CE/h (T1)] are calculated for each animal and averaged in the groups. A substance which at one of the times reduces the cholesteryl ester transport by >20% is regarded as active.
The change in the fluorescence at 485/535 nm is a measure for the CE transfer; the inhibition of the transfer in comparison to the control batch without substance is determined.
To test for CETP-inhibitory activity, the substances are administered orally using a stomach tube to transgenic hCETP mice bred in-house [Dinchuk et al., BBA, 1295-1301 (1995)]. To this end, male animals are randomly assigned to groups having an equal number of animals, as a rule n=4, one day before the start of the experiment. […]

[4] = molecular target: T1, CETP; test: CETP-SPA test; format: biochemical; design: are added to 42 μl (86% v/v) of human plasma (Sigma P9523); tissue Sigma P9523; host or cells: human plasma; conditions: section (b), Example 1 = formula (Ib); 37° C., 18 h
Procedure: 50 ml of fresh human EDTA plasma is adjusted to a density of 1.12 using NaBr and centrifuged at 4° C. in a Ty 65 rotor at 50 000 rpm for 18 h. The upper phase is used for the obtainment of cold LDL. […]
For testing of the CETP activity, the transfer of ^3H-cholesterol ester from human HD lipoproteins to biotinylated LD lipoproteins is measured. The reaction is ended by addition of streptavidin-SPA® beads (Amersham) and the transferred radioactivity is determined directly in a liquid scintillation counter. […]

| SMILES | IC50 [1] | IC50 [2] | inhibition at 3 mg/kg ([3]; section (a), Example 1 = formula (Ia), 16 h after administration, read-out: % inhibition at 3 mg/kg, 16 h) | inhibition at 3 mg/kg ([3]; section (a), Example 1 = formula (Ia), 24 h after administration, read-out: % inhibition at 3 mg/kg, 24 h) | inhibition at 3 mg/kg ([3]; section (b), Example 1 = formula (Ib), 16 h after administration, read-out: % inhibition at 3 mg/kg, 16 h) | inhibition at 3 mg/kg ([3]; section (b), Example 1 = formula (Ib), 24 h after administration, read-out: % inhibition at 3 mg/kg, 24 h) | IC50 [4] |
| --- | --- | --- | --- | --- | --- | --- | --- |
| CC(C)c1nc2c(c(C3CCCC3)c1[C@@H](F)c1ccc(C(F)(F)F)cc1)[C@@H](O)CC(C)(C)C2 [Example 1] | 25 nM | 84 nM |  |  |  |  |  |
| CC1(C)Cc2nc(C3CCCC3)c([C@@H](F)c3ccc(C(F)(F)F)cc3)c(C3CCCCC3)c2[C@@H](O)C1 [Example 1] |  |  | 50% | 24% | 49% | 39% | 12 nM |
